Measured values from paper PMC2852246 (Journal of nuclear medicine : official publication, Society …, 2010).
Several values for one entry are separate records, joined by “and”; a condition that tells them apart may be missing. Equal entries are not always repeated. Where two headings read alike, the source gives them in different places. Blank lines part the entries; values can stand above or below the compound they belong to.

Experiments:
[1] = determined by Health Canada; cited from earlier work
[2] = single dose of 10 mg, eight human volunteers; cited from earlier work
[3] = cited from earlier work
[4] = cited from earlier work; remark: listed apart in the source
[5] = 106 subjects referred for potential kidney donation; cited from earlier work
[6] = earlier study of 106 subjects referred for potential kidney donation; cited from earlier work
[7] = Renal imaging and renogram parameters; type: in vivo, human
[8] = Plasma protein binding by ultracentrifugation; type: in vitro ADME, human; conditions: healthy volunteers, mean ± SD
[9] = Percentage injected dose in the urine of healthy volunteers; type: in vivo, human
[10] = Percentage uptake in erythrocytes; type: in vitro ADME, human; conditions: healthy volunteers, no correction for trapped plasma, mean ± SD
[11] = cortical (parenchymal) region of interest, left kidney, n = 9
[12] = cortical (parenchymal) region of interest, right kidney, n = 9
[13] = whole-kidney region of interest, relative uptake, n = 9, mean (SD)

SMILES: O=C(O)CN(CC(=O)O)CC(=O)O [NTA, Nitrilotriacetic acid]
acceptable daily intake in drinking water [1]: 10 μg/kg of body weight per day
adverse effects after ingestion [2]: No adverse effects

SMILES: O=C([O-])CN(CCN(CC(=O)[O-])CC(=O)[O-])CCN(CC(=O)[O-])CC(=O)[O-].[99Tc+4] [^99mTc-DTPA, ^99mTc-diethyltriaminepentaacetic acid]
extraction fraction [3]: 20%

SMILES: O=C([O-])CN=C([O-])CN=C([O-])CN=C([O-])C[S-].[O-2].[Tc+4] [^99mTc-MAG3, ^99mTc-mercaptoacetyltriglycine]
clearance as percentage of the clearance of 131I-OIH [4]: 50%-60%
plasma clearance as percentage of the 131I-OIH clearance ([4]; multiple studies): 50–60%
camera-based clearance [5]: 321 ± 69 mL/min/1.73 m^2
cortical 20 min/max [6]: 0.19
extraction fraction [3]: 40%-60%

Left cortical TTP [7, 11]: 2.46 ± 0.73 min
Left cortical TTP (min) [7, 11]: 2.46 (0.73) min
Right cortical TTP [7, 12]: 1.98 ± 0.60 min
Right cortical TTP (min) [7, 12]: 1.98 (0.6) min
cortical 20 min/max ([7]; healthy volunteers, kidney side not specified): 0.10
Left kidney 20 min/max ([7]; whole-kidney region of interest, 20 min-to-maximum count ratio, n = 9, mean (SD)): 0.11 (0.03)
Right kidney TTP (min) ([7]; whole-kidney region of interest, n = 9, mean (SD)): 2.8 (1.6) min
Left kidney Uptake % [7, 13]: 49.0 ± 4.1% and 49.0 (4.1) %
Right kidney Uptake % [7, 13]: 51.0 (4.1) %
Left kidney TTP (min) ([7]; whole-kidney region of interest, time to peak of renogram, n = 9, mean (SD)): 2.6 (0.6) min
plasma protein binding [8]: 75 ± 3%
percent injected dose in the urine at 30 min ([9]; 30 min after injection): 69 ± 11%
percent injected dose in the urine at 180 min (3 h) ([9]; 180 min after injection): 91 ± 6%
red cell uptake [10]: 17 ± 5%
SMILES: O=C(O)CNC(=O)c1ccccc1[131I] [^131I-OIH, ^131I ortho-iodohippuran]
mean plasma clearance ([4]; earlier study of healthy volunteers): 530 mL/min
